Experimental data taken from patent publication US20100239563A1 (priority 2001, published 2010).

Legend:
[1] = system: influenza A virus A/WSN-HK (H3N1); type: cell-based
[2] = system: influenza B virus strain Massachusetts/6/93

SMILES | titer of infectious virus particles over infection sequences [1] | reduction of the number of newly formed infectious influenza B virus particles [2]
NC12CC3CC(CC(C3)C1)C2 [amantadine, 1-adamantanamine] | increased, in spite of the amantadine treatment | –
N#CC(=C(N)Sc1ccccc1N)C(C#N)=C(N)Sc1ccccc1N [U0126, 1,4-diamino-2,3-dicyano-1,4-bis(2-aminophenylthio)butadiene] | significant reduction of the influenza virus particles | approx. 90%
